“And” between values parts separate entries of the source, which are not always exact repeats. Equal entries are not always repeated. Marks after values point to notes of the source that are not given here.
Legend:
[1] = Nuclear magnetic relaxation dispersion (NMRD) profiles, Solomon-Bloembergen-Morgan fit; assay type: physicochemical; settings: copper free
Experimental: FIG. 9. ^1H Nuclear magnetic relaxation dispersion profiles of CG3 and CG3+Cu^+ acquired at 25° C. The solid lines represent the best fit profiles.
As a secondary, independent set of experiments to further probe the mechanisms of copper ion sensing by the CG contrast agents, we also performed nuclear magnetic relaxation dispersion (NMRD) measurements of these sensors in the absence and in the presence of copper ions using a field cycling relaxometer (FIG. 9). The profiles obtained were analyzed following Solomon-Bloembergen-Morgan theory^36-38 for the inner-sphere relaxivity and the Freed model^115 for the outer-sphere relaxivity, fixing the diffusion coefficient (D) at […], the distance between Gd^3+ and the inner sphere water protons (r) at 3.1 Å, and the inner sphere exchange lifetime (τM) at 160 ns, the reported value for the parent complex Gd^3+-DO3A. Profiles were obtained for all compounds in the copper-free state. Profiles in the presence of Cu^n+ were obtained for CG2-4 (Cu^+) and CG6 (Cu^2+).
In fact, the measured outer-sphere relaxivities were so low that, in order to obtain a reasonable fit, the distance of closest approach of outer-sphere water protons (a) was allowed to vary. The distances obtained for the CG complexes (4.2-4.8 Å) were markedly longer than what is observed for typical Gd^3+ contrast agents with greater water access (3.8-4 Å). These values correlate with the copper-free relaxivities of CG2-6; longer a values give lower relaxivities and shorter a values give higher relaxivities. For Cu^+-sensing agents CG2-4, the estimated change in q of 2 as determined by DIS measurements was also observed in the fitted NMRD data. In fact, any attempt to fit the observed NMRD profiles with q=1 led to very poor agreement between experimental and calculated values. The change in q of 1 for CG6 upon addition of Cu^2+ as determined by NMRD is consistent with the lower turn-on response observed with this complex compared to CG2-4. The reduced q modulation for CG6 relative to CG2-4 could indicate that the carboxylic acid moiety used for Cu^2+ binding also interacts with the Gd^3+ center in the Cu^2+-bound state. The fitted rotational correlation times (τR) for copper-bound CG complexes all fall within the range expected for Gd^3+ complexes with molecular weights of 700-800 D. τR values for copper-free CG2-6 were fixed to values close to their copper-bound analogues as fits of NMRD data for q=0 complexes are not sensitive to small changes in τR. The values of Δ^2 (average quadratic transient zero field splitting), τv (electronic correlation time), and τs0 (electronic relaxation time at zero field), which govern the electronic relaxation time, are relatively similar to each other. These NMRD values are closer to those of Gd^3+-DTPA than Gd^3+-DOTA, reflecting the asymmetry of CG2-6.^64

[2] = T1-weighted phantom magnetic resonance imaging at 1.5 T; settings: 100 μM sensor with Cu^+ at 0, 10, 25, 50, 75, and 100 μM
Experimental: FIG. 10. A) T1-weighted phantom images of 100 μM CG2-6 in 20 mM HEPES pH 7 with and without 1 equiv Cu^n+. B) Phantom images of 100 μM CG2-6 with 0, 10, 25, 50, 75, and 100 μM [Cu(NCCH3)4]PF6. Images were acquired at 25° C. at 1.5 T (˜64 MHz proton Larmor frequency).
With spectroscopic data showing the turn-on relaxivity responses, binding properties, metal ion selectivities, and copper-induced changes in q values for this new series of CG contrast agents in hand, we next sought to test the ability of these sensors to detect changes in aqueous Cu^+ and/or Cu^2+ levels using MRI. […] In this context, chelatable copper pools have been identified in the mitochondrial matrix^22 and in the Golgi apparatus.^23 Moreover, the cerebrospinal fluid (CSF) contains micromolar levels of copper ions, most of which is not bound to ceruloplasmin due to the low concentrations of this protein in the CSF,^24,25 which may result in facile exchange between different copper binding ligands.^26

[3] = Relaxivity response to 1 equiv Cu+ in the presence of biologically relevant anions; assay type: physicochemical; settings: for increase in r1 in response to Cu^+ / turn-on response to Cu^+: pH 7
Experimental: FIG. 7. Relaxivity responses of CG2 to 1 equiv Cu^+ in the presence of biologically relevant anions. White bars represent CG2 relaxivities without Cu^+ in the presence of various anions. Black bars represent CG2 relaxivities with Cu^+ in the presence of different anions. Percentages in the black bars are the % increases r1. Relaxivity measurements with HEPES, citrate (0.13 mM), lactate (2.3 mM), and HCO3^− (10 mM, 25 mM), were acquired at 37° C. in 20 mM HEPES buffer, pH 7, at a proton Larmor frequency of 60 MHz. Relaxivity measurements with PBS were acquired under similar conditions using phosphate buffered saline, pH 7.4.
We also tested the copper responses of CG2-6 in the presence of physiologically relevant concentrations of common biological anions (FIG. 7). […] Carboxylate-type anions, however, can affect relaxivity responses of Cu^+-bound CG2. Addition of citrate (0.13 mM) and lactate (2.3 mM) to CG2 results in turn-on responses to Cu^+ of 220% and 71% respectively. Carbonate concentrations also affect the response of CG2; the effect of carbonate was tested at 10 mM NaHCO3 (intracellular)^104 and 25 mM NaHCO3 (extracellular)^108 and gave increases in r1 in response to Cu^+ of 190% and 140% respectively. Although the relaxivity increases observed in the presence of anions are still well within a range detectable by MRI,^109 current work is geared toward developing CG-sensors with more carboxylate functionalities incorporated into the ligand framework to minimize anion sensitivity.^55,110

[4] = Longitudinal relaxivity (r1) turn-on response to Cu+ from T1 measurements at 60 MHz; assay type: physicochemical; settings: 1 equiv Cu^+, 20 mM HEPES buffer, pH 7, 37° C.
Experimental: The longitudinal relaxivity values for the CG contrast agents in the absence or presence of copper ions were determined using T1 measurements at 60 MHz. Studies were performed at 37° C. in 20 mM HEPES buffered to pH 7, and solutions of the purified CG sensors for relaxivity experiments contained 0.2 mM Gd^3+ as determined by ICP-OES. Spectroscopic data are collected in Table 1.
Upon addition of up to 1 equiv of copper ions, the relaxivity values of the CG contrast agents increase, establishing the ability of these probes to sense copper using the MR modality (Table 1, FIG. 3). CG2, CG3, CG4, and CG5 respond to Cu^+ with relaxivity increases ranging from 92% to 360%. […] These values represent the largest relaxivity enhancements observed to date for metal-activated MR contrast agents and a ca. 9-fold improvement in copper ion response compared to CG1 (41% increase). The observed differences in turn-on Cu^+ responses for benzyl-substituted CG4 (290% increase) versus methyl-substituted CG5 (92% increase) with the same pyridyl-thioether receptor show the marked effects that small peripheral substitutions can have on relaxivity properties.

CCSCCN(CCSCC)Cc1cccc(CN2CCN(CC(=O)[O-])CCN(CC(=O)[O-])CCN(CC(=O)[O-])CC2)n1.[Gd+3] [CG2]
τs0 (electronic relaxation time at zero field) [1]: 75.6 ps | r1p 20 MHz 25° C. ([1]; 0.5 mM, 20 mM HEPES pH 7): 1.6 mM⁻¹ s⁻¹ | a (distance of closest approach of outer-sphere water protons) ([1]; best-fit value): 4.7 ± 0.11 Å | Δ^2 (average quadratic transient zero field splitting) ([1]; best-fit value): 5.8 ± 1.1 10^19 s^−2 | τv (electronic correlation time) ([1]; best-fit value): 19 ± 2.4 ps | q ([1]; fixed in the fitting procedure): 0^c | τR (rotational correlation time) ([1]; not experimentally determined, assumed equal to corresponding q ≠ 0 complex (CG5: average of the other complexes)): 110^d ps | visualization of copper level differences in phantom images [2]: can readily visualize differences in copper levels in a biologically relevant μM range | increase in r1 in response to Cu^+ ([3]; 10 mM NaHCO3 (intracellular) in 20 mM HEPES): 190% | increase in r1 in response to Cu^+ ([3]; 25 mM NaHCO3 (extracellular) in 20 mM HEPES): 140% | turn-on response to Cu^+ ([3]; citrate (0.13 mM) in 20 mM HEPES, 1 equiv Cu^+): 220% | turn-on response to Cu^+ ([3]; lactate (2.3 mM) in 20 mM HEPES, 1 equiv Cu^+): 71% | increase in relaxivity in response to Cu^+ ([3]; phosphate buffered saline (PBS, 10 mM phosphate), pH 7.4, 1 equiv Cu^+): 350% | r1 (1 equiv Cu) [4]: 6.9 mM^−1s^−1 and 6.9^b mM^−1s^−1
